Laboratory results: patent US20240391948A1, “NOVEL COMPOUND THAT INHIBITS TNF-ALPHA GENERATION AND INFLAMMASOME ACTIVITY AND PREPARATION METHOD THEREFOR” (SHAPERON INC., priority 2021, published 2024)

How the values were obtained:
Assay type in all cases: cell-based
[1] = system: J774A.1 (Mouse BALB/c monocyte macrophage cell line) cells; test: LPS+ATP-induced IL-1β secretion inhibition in J774A.1 cells; details: J774.A1, 1 μM compound, graded compared to taurodeoxycholic acid (positive control), read-out: IL-1β production inhibition grade
Experimental: (§1) To evaluate anti-inflammatory efficacy, an inflammatory response was induced in J774A.1 (Mouse BALB/c monocyte macrophage cell line) cells derived from mouse macrophages by LPS (lipopolysaccharide) and LPS+ATP (adenosine triphosphate), and the efficacy of taurine-bile acid derivatives to inhibit the production of inflammatory cytokines (IL-1β, TNF-α) was measured. After treating J774A.1 cells with 1 μM of a taurine-bile acid derivative, the degree to which the secretion of TNF-α among cytokines was suppressed was measured in the experimental group in which an inflammatory response was induced by LPS, and the extent to which IL-1β secretion among cytokines was suppressed was measured in the experimental group in which an inflammatory response was induced with LPS+ATP. The ability of taurine-bile acid derivatives to inhibit cytokine production was graded compared to taurodeoxycholic acid, a positive control. The grading criteria are A: over 100%, B: over 50% and under 100%, C: between 20% and under 50%, and D: under 20%.

[2] = system: J774A.1 (Mouse BALB/c monocyte macrophage cell line) cells; test: LPS-induced TNF-α secretion inhibition in J774A.1 cells; details: J774.A1, 1 μM compound, graded compared to taurodeoxycholic acid (positive control), read-out: TNF-α production inhibition grade
Experimental: as §1

[3] = system: U937 cells (human monocytic cell line); test: BzATP-induced IL-1β secretion inhibition in PMA-differentiated U937 cells; details: U-937, U937 cells differentiated with PMA, read-out: IL-1β production inhibition grade (IC50)
Experimental: (§2) To evaluate anti-inflammatory efficacy, U937 cells (human monocytic cell line) were differentiated into macrophages using PMA (phorbol 12-myristate 13-acetate) and then induced an inflammatory response with Pam2CSK4 (Pam2CysSerLys4) or BzATP (2′(3′)—O-(4-Benzoylbenzoyl)adenosine 5′-triphosphate), the efficacy of taurine-bile acid derivatives in suppressing inflammatory cytokine (IL-1β, TNF-α) production was measured.
(§3) Using PMA, U937 cells were differentiated into macrophages, and the extent of TNF-α secretion inhibition was measured in an experimental group where taurine-bile acid derivatives was treated, followed by induction of inflammatory response with Pam2CSK4, and in the experimental group in which an inflammatory response was induced with BzATP, the extent to which IL-1β secretion among cytokines was suppressed was measured.
(§4) The ability of taurine-bile acid derivatives to inhibit cytokine production was expressed in terms of IC50 (μM) values. The standards for TNF α inhibition ability are A: less than 0.5, B: 0.5 to less than 1.0, C: 1.0 to less than 2.0, D: 2.0 or more, and the IL-1β inhibition ability grade standards are A: less than 0.05, B: 0.05 to less than 0.10, C: 0.10 or more and less than 0.20, D: 0.20 or more.

[4] = system: U937 cells (human monocytic cell line); test: Pam2CSK4-induced TNF-α secretion inhibition in PMA-differentiated U937 cells; details: U-937, U937 cells differentiated with PMA, read-out: TNF-α production inhibition grade (IC50)
Experimental: as §2, §3, §4

Compound	inhibition at 1 µM [1] [%]	inhibition at 1 µM [2] [%]	IC50 [3] [nM]	IC50 [4] [nM]
CC[C@H]1[C@@H](O)[C@@H]2[C@H](CC[C@]3(C)[C@@H]([C@H](C)CCC(=O)N[C@@H](CC(C)C)CS(=O)(=O)O)CC[C@@H]23)[C@@]2(C)CC[C@@H](O)C[C@@H]12 [NC40030]	< 20	< 20	≥ 200	1000 to 2000
C[C@H](CCC(=O)N[C@@H](CO)CS(=O)(=O)O)[C@H]1CC[C@H]2[C@@H]3[C@H](O)C[C@@H]4C[C@H](O)CC[C@]4(C)[C@H]3C[C@H](O)[C@]12C [NC20024]	20 to 50	< 20	≥ 200	< 500
C[C@H](CCC(=O)N(CCS(=O)(=O)O)Cc1ccccc1)[C@H]1CC[C@H]2[C@@H]3CC[C@@H]4C[C@H](O)CC[C@]4(C)[C@H]3CC[C@]12C [NC10056]	50 to 100	20 to 50	50 to 100	≥ 2000
CC[C@H]1[C@@H](O)[C@@H]2[C@H](CC[C@]3(C)[C@@H]([C@H](C)CCC(=O)N[C@H](Cc4ccccc4)CS(=O)(=O)O)CC[C@@H]23)[C@@]2(C)CC[C@@H](O)C[C@@H]12 [NC40015]	> 100	< 20	50 to 100	500 to 1000
C[C@H](CCC(=O)N(CCS(=O)(=O)O)C1CCOCC1)[C@H]1CC[C@H]2[C@@H]3CC[C@@H]4CC(=O)CC[C@]4(C)[C@H]3CC[C@]12C [NC30008]	50 to 100	< 20	≥ 200	500 to 1000
CC(C)C[C@@H](CS(=O)(=O)O)NC(=O)CC[C@@H](C)[C@H]1CC[C@H]2[C@@H]3[C@H](O)C[C@@H]4C[C@H](O)CC[C@]4(C)[C@H]3C[C@H](O)[C@]12C [NC20030]	< 20	< 20	≥ 200	< 500
C[C@H](CCC(=O)N(CCS(=O)(=O)O)C1CCOCC1)[C@H]1CC[C@H]2[C@@H]3CC[C@@H]4C[C@H](O)CC[C@]4(C)[C@H]3C[C@H](O)[C@]12C [NC10025]			50 to 100	1000 to 2000
CC[C@H]1[C@@H](O)[C@@H]2[C@H](C[C@H](O)[C@]3(C)[C@@H]([C@H](C)CCC(=O)NCCC(=O)O)CC[C@@H]23)[C@@]2(C)CC[C@@H](O)C[C@@H]12 [NC50002]			≥ 200	≥ 2000
C[C@H](CCC(=O)N(CCS(=O)(=O)O)c1ccccc1)[C@H]1CC[C@H]2[C@@H]3CC[C@@H]4C[C@H](O)CC[C@]4(C)[C@H]3CC[C@]12C [NC10093]			100 to 200	≥ 2000
CC[C@H]1[C@@H](O)[C@@H]2[C@H](CC[C@]3(C)[C@@H]([C@H](C)CCC(=O)NCCCO)CC[C@@H]23)[C@@]2(C)CC[C@@H](O)C[C@@H]12 [NC40003]			≥ 200	≥ 2000
C[C@H](CCC(=O)N[C@@H]1CCCC[C@@H]1S(=O)(=O)O)[C@H]1CC[C@H]2[C@@H]3CC[C@@H]4CC(=O)CC[C@]4(C)[C@H]3CC[C@]12C [NC30026]			≥ 200	< 500
C[C@H](CCC(=O)NC1(CS(=O)(=O)O)CC1)[C@H]1CC[C@H]2[C@@H]3CC[C@@H]4CC(=O)CC[C@]4(C)[C@H]3CC[C@]12C [NC30032]			≥ 200	500 to 1000
CC[C@H]1[C@@H](O)[C@@H]2[C@H](C[C@H](O)[C@]3(C)[C@@H]([C@H](C)CCC(=O)N[C@@H](CS(=O)(=O)O)C(C)C)CC[C@@H]23)[C@@]2(C)CC[C@@H](O)C[C@@H]12 [NC50017]			50 to 100	1000 to 2000
CC[C@H]1[C@@H](O)[C@@H]2[C@H](C[C@H](O)[C@]3(C)[C@@H]([C@H](C)CCC(=O)N4CCC(S(=O)(=O)O)CC4)CC[C@@H]23)[C@@]2(C)CC[C@@H](O)C[C@@H]12 [NC50011]			≥ 200	≥ 2000
CC[C@H]1[C@@H](O)[C@@H]2[C@H](C[C@H](O)[C@]3(C)[C@@H]([C@H](C)CCC(=O)N(CCS(=O)(=O)O)Cc4ccccc4)CC[C@@H]23)[C@@]2(C)CC[C@@H](O)C[C@@H]12 [NC50005]			≥ 200	1000 to 2000
CC[C@H]1[C@@H](O)[C@@H]2[C@H](C[C@H](O)[C@]3(C)[C@@H]([C@H](C)CCC(=O)N[C@@H](Cc4ccccc4)CS(=O)(=O)O)CC[C@@H]23)[C@@]2(C)CC[C@@H](O)C[C@@H]12 [NC50014]			< 50	500 to 1000
CC[C@H]1[C@@H](O)[C@@H]2[C@H](C[C@H](O)[C@]3(C)[C@@H]([C@H](C)CCC(=O)N4CCC[C@H](S(=O)(=O)O)C4)CC[C@@H]23)[C@@]2(C)CC[C@@H](O)C[C@@H]12 [NC50009]			100 to 200	1000 to 2000
C[C@H](CCC(=O)NCCCO)[C@H]1CC[C@H]2[C@@H]3[C@H](O)C[C@@H]4C[C@H](O)CC[C@]4(C)[C@H]3C[C@H](O)[C@]12C [NC20003]	20 to 50	50 to 100	50 to 100	
C[C@H](CCC(=O)N(CCS(=O)(=O)O)Cc1cccnc1)[C@H]1CC[C@H]2[C@@H]3CC[C@@H]4CC(=O)CC[C@]4(C)[C@H]3CC[C@]12C [NC30036]			≥ 200	1000 to 2000
CC[C@H]1[C@@H](O)[C@@H]2[C@H](C[C@H](O)[C@]3(C)[C@@H]([C@H](C)CCC(=O)NC[C@@H](C)S(=O)(=O)O)CC[C@@H]23)[C@@]2(C)CC[C@@H](O)C[C@@H]12 [NC50023]			≥ 200	≥ 2000
C[C@H](CCC(=O)N(CCS(=O)(=O)O)Cc1ccccc1)[C@H]1CC[C@H]2[C@@H]3CC[C@@H]4CC(=O)CC[C@]4(C)[C@H]3CC[C@]12C [NC30005]			≥ 200	500 to 1000
CC[C@H]1[C@@H](O)[C@@H]2[C@H](CC[C@]3(C)[C@@H]([C@H](C)CCC(=O)N[C@@H]4CCCC[C@@H]4S(=O)(=O)O)CC[C@@H]23)[C@@]2(C)CC[C@@H](O)C[C@@H]12 [NC40026]			50 to 100	500 to 1000
CC[C@H]1[C@@H](O)[C@@H]2[C@H](CC[C@]3(C)[C@@H]([C@H](C)CCC(=O)N(CCS(=O)(=O)O)Cc4ccccc4)CC[C@@H]23)[C@@]2(C)CC[C@@H](O)C[C@@H]12 [NC40005]			≥ 200	≥ 2000
C[C@H](CCC(=O)NCCCO)[C@H]1CC[C@H]2[C@@H]3CC[C@@H]4C[C@H](O)CC[C@]4(C)[C@H]3C[C@H](O)[C@]12C [NC10021]			50 to 100	1000 to 2000
CC[C@H]1[C@@H](O)[C@@H]2[C@H](CC[C@]3(C)[C@@H]([C@H](C)CCC(=O)N[C@H](CS(=O)(=O)O)C(C)C)CC[C@@H]23)[C@@]2(C)CC[C@@H](O)C[C@@H]12 [NC40016]			≥ 200	500 to 1000
CC(C)N(CCS(=O)(=O)O)C(=O)CC[C@@H](C)[C@H]1CC[C@H]2[C@@H]3CC[C@@H]4CC(=O)CC[C@]4(C)[C@H]3CC[C@]12C [NC30007]			≥ 200	< 500
C[C@H](CCC(=O)N(CCS(=O)(=O)O)Cc1cccnc1)[C@H]1CC[C@H]2[C@@H]3CC[C@@H]4C[C@H](O)CC[C@]4(C)[C@H]3CC[C@]12C [NC10092]			50 to 100	≥ 2000
C[C@H](CCC(=O)N[C@H](CS(=O)(=O)O)c1ccccc1)[C@H]1CC[C@H]2[C@@H]3CC[C@@H]4C[C@H](O)CC[C@]4(C)[C@H]3C[C@H](O)[C@]12C [NC10034]			50 to 100	500 to 1000
C[C@H](CCC(=O)N[C@@H](CO)CS(=O)(=O)O)[C@H]1CC[C@H]2[C@@H]3CC[C@@H]4CC(=O)CC[C@]4(C)[C@H]3CC[C@]12C [NC30024]			≥ 200	1000 to 2000
C[C@H](CCC(=O)N1CCC[C@H]1CS(=O)(=O)O)[C@H]1CC[C@H]2[C@@H]3CC[C@@H]4CC(=O)CC[C@]4(C)[C@H]3CC[C@]12C [NC30021]			50 to 100	500 to 1000
